Data taken from ChEMBL document CHEMBL5375988, “AcGlcAs: A Novel P53-Targeting Arsenical with Potent Cellular Uptake and Cancer Cell Selectivity” (J Med Chem, 2023).
Activity calls are given as the source filed them. The calls are words filed in the database; no cut-off is given here.

Assays:
NB-4 [1] = test: Induction of apoptosis in human NB4 cells assessed as viable cells at 3 uM preincubated for 1 hrs followed by replacement with fresh culture medium and measured after 24 hrs by Annexin V-FITC/7AAD staining based flow cytometry assay (reference value: 94%); format: functional; conditions: read-out: Activity
[2] = Drug uptake in human HPDE6c7 cells at 10 uM measured after 10 mins by ICP-MS analysis; format: ADME, cell-based; conditions: hpde6c7, 10 min
[3] = Drug accumulation in ICR mouse lungs at 10 mg/kg, iv measured upto 24 hrs by ICP-MS analysis; format: ADME, organism-based, Lung; conditions: in vivo
[4] = system: Cellular tumor antigen p53 (Homo sapiens), P04637 [V272M]; test: Restoration of p53-V272M mutant transcriptional activity on PUMA promoter in human NCI-H1299 cells at 10 uM pretreated with 20 to 40 uM N-ethylmaleimide for 30 mins followed by compound addition for 10 mins and further incubation in fresh medium for 24 hrs by firefly/renilla based luciferase reporter assay; format: cell-based
[5] = biological target: T1, PML-RARalpha (Homo sapiens) (UniProt P10276+P29590); test: Induction of PML/RARalpha degradation in human NB4 cells assessed as residual protein level at 9 uM incubated for 1 hrs followed by replacement with fresh culture medium and measured after 16 hrs by Western blot analysis (reference value: 1); format: cell-based
U-937 [6] = test: Cytotoxicity against p53 null human U-937 cells harboring p53 V272M mutant incubated for 48 hrs by CCK-8 assay; format: functional, cell-based; conditions: U-937, 48 h
HL-60 [7] = test: Inhibition of colony formation in human HL-60 cells harboring p53-V272M mutant at 0.2 to 3.2 uM pretreated for 1 hr followed by culturing in fresh medium and measured on day 18 by crystal violet staining based assay; format: functional, cell-based; conditions: dose 0.2-3.2 µM
NB-4 [8] = test: Induction of apoptosis in human NB4 cells assessed as late apoptotic cells at 27 uM preincubated for 1 hrs followed by replacement with fresh culture medium and measured after 24 hrs by Annexin V-FITC/7AAD staining based flow cytometry assay (reference value: 3.71%); format: functional
NCI-H1299 = test: Upregulation of MDM2 protein expression in human NCI-H1299 cells overexpressing p53-V272M mutant pretreated for 1 hr followed by culturing in fresh medium for 16 hrs by Western blot analysis; format: functional, cell-based
U-937 [9] = test: Antitumor activity against GFP-tagged human U-937 cells harboring p53 V272M mutant xenografted in M-NSG mouse assessed as decrease in leukemia cell population in bone marrow at 25 mg/kg, ip administered for 9 days starting from 7 days post inoculation and measured on day 2,6,and 9 by FACS analysis; format: functional, organism-based; conditions: time 9.0 day
[10] = biological target: T1, PML-RARalpha (Homo sapiens); test: Induction of PML/RARalpha degradation in human NB4 cells assessed as residual protein level at 3 uM incubated for 1 hrs followed by replacement with fresh culture medium and measured after 16 hrs by Western blot analysis (reference value: 1); format: cell-based
[11] = Plasma stability in dog assessed as half life at […] measured upto 120 mins by LC-MS analysis; format: ADME, cell-free, Canis lupus familiaris
NB-4 [12] = test: Induction of apoptosis in human NB4 cells assessed as viable cells at 27 uM preincubated for 1 hrs followed by replacement with fresh culture medium and measured after 24 hrs by Annexin V-FITC/7AAD staining based flow cytometry assay (reference value: 94%); format: functional; conditions: read-out: Activity
[13] = Drug uptake in human U-937 cells harboring p53-V272M mutant at 10 uM measured after 10 mins by ICP-MS analysis; format: ADME, cell-based; conditions: u-937, 10 min
U-937 [14] = test: Antitumor activity against luciferase transduced human U-937 cells harboring p53 V272M mutant xenografted in M-NSG mouse assessed as median survival at 10 mg/kg, iv administered daily for 11 days (reference value: 11 day); format: functional
[15] = system: Cellular tumor antigen p53 (Homo sapiens), P04637 [V272M]; test: Restoration of p53-V272M mutant transcriptional activity on PUMA promoter in human NCI-H1299 cells at 10 uM pretreated with -auranofin for 10 mins followed by compound addition for 10 mins and further incubation in fresh medium for 24 hrs by firefly/renilla based luciferase reporter assay; format: cell-based
U-937 [16] = test: Upregulation of PUMA mRNA expression in human U-937 cells overexpressing p53-V272M mutant pretreated for 1 hr followed by culturing in fresh medium for 4 hrs by RT-qPCR analysis; format: functional, cell-based
HL-60 [17] = test: Upregulation of PUMA protein expression in human HL-60 cells overexpressing p53-V272M mutant pretreated for 1 hr followed by culturing in fresh medium for 16 hrs by Western blot analysis; format: functional, cell-based
[18] = Clearance in mouse assessed as hepatic blood flow; format: ADME, tissue-based
[19] = Drug uptake in HFL1 cells at 10 uM measured after 10 mins by ICP-MS analysis; format: ADME, cell-based; conditions: human, hfl1, 10 min
HL-60 [20] = test: Upregulation of PUMA mRNA expression in human HL-60 cells overexpressing p53-V272M mutant at 2 uM pretreated for 1 hr followed by culturing in fresh medium for 8 hrs by RT-qPCR analysis; format: functional, cell-based
HepG2 = test: Impairment of thiol-mediated drug uptake in human HepG2 cells assessed as reduction in arsenic level at 10 uM pretreated with N-ethylmaleimide for 30 mins followed by compound addition and measured after 10 mins by ICP-MS analysis relative to control; format: ADME, cell-based; parameters: scale not given: the % may be the effect or the level left; conditions: hepg2, 10 min
U-937 [21] = test: Upregulation of p21 mRNA expression in human U-937 cells overexpressing p53-V272M mutant pretreated for 1 hr followed by culturing in fresh medium for 4 hrs by RT-qPCR analysis; format: functional, cell-based
[22] = Plasma stability in mouse assessed as half life at […] measured upto 120 mins by LC-MS analysis; format: ADME, cell-free
NB-4 [23] = test: Induction of apoptosis in human NB4 cells assessed as late apoptotic cells at 3 uM preincubated for 1 hrs followed by replacement with fresh culture medium and measured after 24 hrs by Annexin V-FITC/7AAD staining based flow cytometry assay (reference value: 3.71%); format: functional
U-937 [24] = test: Induction of apoptosis in human U-937 cells harboring p53-V272M mutant assessed as increase in late apoptotic cells at 0.5 to 8 uM pretreated for 1 hr followed by culturing in fresh medium for 24 hrs by Annexin V-FITC/7AAD staining based flow cytometry analysis; format: functional, cell-based; conditions: dose 0.5-8 µM
[25] = Drug uptake in human MDA-MB-231 cells at 10 uM measured after 10 mins by ICP-MS analysis; format: ADME, cell-based; conditions: mda-mb-231, 10 min
U-937 [26] = test: Upregulation of PUMA protein expression in human U-937 cells overexpressing p53-V272M mutant at 0.1 to 0.5 uM pretreated for 1 hr followed by culturing in fresh medium for 16 hrs by Western blot analysis; format: functional, cell-based; conditions: dose 0.1-0.5 µM
NB-4 [27] = test: Induction of granulocytic differentiation in human NB4 cells assessed as CD11b positive cells at 9 uM incubated for 1 hrs followed by replacement with fresh culture medium for 48 hrs by flow cytometry analysis relative to control; format: functional
U-937 [28] = test: Upregulation of MDM2 protein expression in human U-937 cells overexpressing p53-V272M mutant at 0.1 to 0.5 uM pretreated for 1 hr followed by culturing in fresh medium for 16 hrs by Western blot analysis; format: functional, cell-based; conditions: dose 0.1-0.5 µM
U-937 [29] = test: Induction of apoptosis in human U-937 cells harboring p53-V272M mutant assessed as increase in early apoptotic cells at 0.5 to 8 uM pretreated for 1 hr followed by culturing in fresh medium for 24 hrs by Annexin V-FITC/7AAD staining based flow cytometry analysis; format: functional, cell-based; conditions: dose 0.5-8 µM

T1 sequence (P10276 whole entry, looked up): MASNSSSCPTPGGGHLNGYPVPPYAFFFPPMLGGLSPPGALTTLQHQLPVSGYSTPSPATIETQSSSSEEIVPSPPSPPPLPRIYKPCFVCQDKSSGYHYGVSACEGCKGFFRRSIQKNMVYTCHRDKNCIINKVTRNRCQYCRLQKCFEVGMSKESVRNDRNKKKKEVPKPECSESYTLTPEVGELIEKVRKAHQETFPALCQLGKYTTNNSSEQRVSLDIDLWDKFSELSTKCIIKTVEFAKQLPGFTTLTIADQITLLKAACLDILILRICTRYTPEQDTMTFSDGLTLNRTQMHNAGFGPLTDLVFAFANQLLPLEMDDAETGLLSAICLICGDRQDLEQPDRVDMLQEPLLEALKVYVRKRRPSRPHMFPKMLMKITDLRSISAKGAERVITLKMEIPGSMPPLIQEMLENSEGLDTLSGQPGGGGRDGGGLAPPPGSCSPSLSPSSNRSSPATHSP
T1 sequence (P29590 whole entry, looked up): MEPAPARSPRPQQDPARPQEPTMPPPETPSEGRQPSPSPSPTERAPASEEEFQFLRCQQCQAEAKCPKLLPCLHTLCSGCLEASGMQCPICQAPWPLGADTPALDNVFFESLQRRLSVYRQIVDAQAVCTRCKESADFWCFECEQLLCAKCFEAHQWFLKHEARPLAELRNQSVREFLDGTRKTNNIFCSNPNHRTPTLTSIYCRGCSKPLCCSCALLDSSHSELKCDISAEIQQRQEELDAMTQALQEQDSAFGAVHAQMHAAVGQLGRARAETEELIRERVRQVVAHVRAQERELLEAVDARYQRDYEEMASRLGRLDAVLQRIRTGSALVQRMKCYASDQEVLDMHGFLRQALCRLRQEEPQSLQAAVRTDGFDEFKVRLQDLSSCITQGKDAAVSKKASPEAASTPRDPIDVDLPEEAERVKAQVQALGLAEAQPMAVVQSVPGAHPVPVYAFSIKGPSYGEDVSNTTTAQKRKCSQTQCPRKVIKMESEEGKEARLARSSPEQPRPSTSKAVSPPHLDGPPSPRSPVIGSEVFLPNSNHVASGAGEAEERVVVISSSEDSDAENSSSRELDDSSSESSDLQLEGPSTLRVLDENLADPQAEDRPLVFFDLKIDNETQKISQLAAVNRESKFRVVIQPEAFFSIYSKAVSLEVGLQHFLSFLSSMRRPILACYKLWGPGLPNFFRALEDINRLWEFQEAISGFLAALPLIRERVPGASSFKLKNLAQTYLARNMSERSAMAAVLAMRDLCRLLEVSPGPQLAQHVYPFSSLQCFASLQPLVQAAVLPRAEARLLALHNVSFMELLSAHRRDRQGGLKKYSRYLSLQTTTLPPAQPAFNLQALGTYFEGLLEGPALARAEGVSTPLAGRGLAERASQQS

SMILES: CC(=O)OC[C@H]1O[C@@H](S[As]2SCCS2)[C@H](OC(C)=O)[C@@H](OC(C)=O)[C@@H]1OC(C)=O
- viability at 3 µM (NB-4 [1]): 91.1%
- Drug uptake [2]: Active
- Drug uptake [3]: Active
- Activity [4]: inactive
- Activity [5]: 0.02
- IC50 (U-937 [6]): 230 nM
- inhibition (HL-60 [7]): Active
- Activity (NB-4 [8]): 29%
- Activity (NCI-H1299): Active
- Activity (U-937 [9]): Active
- Activity [10]: 0.18
- half-life [11]: 3.06 min
- viability at 27 µM (NB-4 [12]): 54.1%
- Drug uptake [13]: Active
- MST (U-937 [14]): 16 days
- Activity [15]: inactive
- Activity (U-937 [16]): Active
- Activity (HL-60 [17]): Active
- QH [18]: 90 mL/min/kg
- Drug uptake [19]: Active
- Activity (HL-60 [20]): Active
- Activity (HepG2): ~ 90%
- Activity (U-937 [21]): Active
- half-life [22]: 13.4 min
- Activity (NB-4 [23]): 4.45%
- Activity (U-937 [24]): Active
- Drug uptake [25]: Active
- Activity (U-937 [26]): Active
- Activity (NB-4 [27]): 20.9%
- Activity (U-937 [28]): Active
- Activity (U-937 [29]): Active
